This is an account of results in publication PMC4682813, “The Aminosteroid Derivative RM-133 Shows In Vitro and In Vivo Antitumor Activity in Human Ovarian and Pancreatic Cancers” (PLoS ONE, 2015).

Data set [1] relates to PANC-1 cells. Nature of the data set: MTS cell proliferation (viability) assay, PANC-1. It counts as cell-based. Particulars: Homo sapiens, 72 h incubation. As for the experimental part: Human ovarian (OVCAR-3) and pancreatic (PANC-1) cancer cells were purchased from the American Type Culture Collection (ATCC, Rockville, MD) and maintained in exponential growth in a 5% CO2 humidified atmosphere at 37°C. OVCAR-3 cells were routinely grown in RPMI-1640 medium (Sigma, St. Louis, MO) supplemented with 20% FBS, L-glutamine (2 mM), antibiotics (100 IU penicillin/mL and 100 μg streptomycin/mL), insulin (50 ng/mL), and estradiol (1 nM). For OVCAR-3 cell proliferation assays, the medium used was identical, except for the omission of estradiol. […]
The cell proliferation assay was performed with a colorimetric method using 3-(4,5-dimethylthiazol-2-yl)-5-(3-carboxymethoxyphenyl)2-(4-sulfophenyl)-2H-tetrazolium (MTS) (Cell Titer 96 Aqueous, Promega, Madison, WI). […] MTS is converted to water-soluble colored formazan by dehydrogenases present in metabolically active cells, and therefore, the MTS assay allows the immediate determination of absorbance of the soluble formazan directly in the cell medium and thus the measurement of viable cells. The A 490 of the medium was determined using a 96-well microplate reader INFINITE 200 PRO series (TECAN, Männedorf, Switzerland). The IC50 value of RM-133 was determined for each of the two cell lines using the GraphPad Prism 7 software (GraphPad Software, Inc., San Diego, CA).

Data set [2] concerns CYP3A4. Further details: method as in PMID 25300820. Particulars: low to moderate risk of drug-drug interactions; cited from earlier work.

SMILES strings stand for the structures.

As usually defined, the IC50 is the concentration that gives 50% inhibition. Higher therefore signals a need for much substance. Compound `C#C[C@]1(O)CC[C@H]2[C@@H]3CC[C@H]4C[C@H](O)[C@@H](N5CCN(C(=O)[C@@H]6CCCN6C(=O)c6ccc7ccccc7n6)CC5)C[C@]4(C)[C@H]3CC[C@@]21C` [RM-133] displayed an IC50 in data set [1] of 300 nM. For the same compound, in data set [2], the “inhibition of CYP3A4” value was “weak inhibition”.
